This is an account of results in patent publication US11771709B2, “ALK protein degradation agent and anti-tumor application thereof” (ShanghaiTech University, priority 2017, dated 2023).

Molecules are shown by their SMILES.

What all share (type): cell-based
One test relates to SR (NPM-ALK) cells. Put plainly: Growth inhibition IC50 in ALCL SR cells (CCK8/WST, 72 hours). The following applies: SR cells, WST.
The target of test [1] is T1, ALK protein in SR (NPM-ALK) cells (Homo sapiens, UniProt Q9UM73).
T1 construct: NPM (nucleophosmin, NPM1, P06748) fusion partner; host or cells: SR (ALCL) cells; the other entry of the earlier key: NPM1 (P06748, Nucleophosmin)
T1 sequence (Q9UM73 with tags, fused parts or gaps): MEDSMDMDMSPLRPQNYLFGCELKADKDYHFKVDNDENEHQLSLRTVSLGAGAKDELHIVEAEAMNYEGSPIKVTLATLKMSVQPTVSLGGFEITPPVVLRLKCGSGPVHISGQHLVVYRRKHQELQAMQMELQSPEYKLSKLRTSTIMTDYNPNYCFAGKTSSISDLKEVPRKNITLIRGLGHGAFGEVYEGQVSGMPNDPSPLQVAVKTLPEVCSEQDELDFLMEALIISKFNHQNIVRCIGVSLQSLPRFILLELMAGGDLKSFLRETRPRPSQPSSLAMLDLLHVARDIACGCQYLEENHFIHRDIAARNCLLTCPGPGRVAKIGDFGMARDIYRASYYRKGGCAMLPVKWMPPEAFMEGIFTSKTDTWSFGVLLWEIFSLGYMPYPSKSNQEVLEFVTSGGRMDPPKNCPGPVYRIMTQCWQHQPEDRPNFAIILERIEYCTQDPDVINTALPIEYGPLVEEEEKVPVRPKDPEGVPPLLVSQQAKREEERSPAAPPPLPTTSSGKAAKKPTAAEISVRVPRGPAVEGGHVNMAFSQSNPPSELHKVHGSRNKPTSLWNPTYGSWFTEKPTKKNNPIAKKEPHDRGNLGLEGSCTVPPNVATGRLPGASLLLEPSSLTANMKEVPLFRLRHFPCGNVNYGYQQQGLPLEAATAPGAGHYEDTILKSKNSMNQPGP
In words: Western blot of ALK protein level (degradation, DC50), ALK phosphorylation and downstream signaling in SR cells. Conditions: ALK protein degradation in SR cells.

Test [2] deals with T2, ALK protein in H3122 (EML4-ALK) cells (Homo sapiens, UniProt Q9UM73).
T2 construct: EML4 (Echinoderm microtubule-associated protein-like 4, Q9HC35) fusion partner, variant 1; host or cells: NCI-H3122 lung adenocarcinoma cells; the other entry of the earlier key: EML4 (Q9HC35, Echinoderm microtubule-associated protein-like 4)
T2 sequence (Q9UM73 with tags, fused parts or gaps): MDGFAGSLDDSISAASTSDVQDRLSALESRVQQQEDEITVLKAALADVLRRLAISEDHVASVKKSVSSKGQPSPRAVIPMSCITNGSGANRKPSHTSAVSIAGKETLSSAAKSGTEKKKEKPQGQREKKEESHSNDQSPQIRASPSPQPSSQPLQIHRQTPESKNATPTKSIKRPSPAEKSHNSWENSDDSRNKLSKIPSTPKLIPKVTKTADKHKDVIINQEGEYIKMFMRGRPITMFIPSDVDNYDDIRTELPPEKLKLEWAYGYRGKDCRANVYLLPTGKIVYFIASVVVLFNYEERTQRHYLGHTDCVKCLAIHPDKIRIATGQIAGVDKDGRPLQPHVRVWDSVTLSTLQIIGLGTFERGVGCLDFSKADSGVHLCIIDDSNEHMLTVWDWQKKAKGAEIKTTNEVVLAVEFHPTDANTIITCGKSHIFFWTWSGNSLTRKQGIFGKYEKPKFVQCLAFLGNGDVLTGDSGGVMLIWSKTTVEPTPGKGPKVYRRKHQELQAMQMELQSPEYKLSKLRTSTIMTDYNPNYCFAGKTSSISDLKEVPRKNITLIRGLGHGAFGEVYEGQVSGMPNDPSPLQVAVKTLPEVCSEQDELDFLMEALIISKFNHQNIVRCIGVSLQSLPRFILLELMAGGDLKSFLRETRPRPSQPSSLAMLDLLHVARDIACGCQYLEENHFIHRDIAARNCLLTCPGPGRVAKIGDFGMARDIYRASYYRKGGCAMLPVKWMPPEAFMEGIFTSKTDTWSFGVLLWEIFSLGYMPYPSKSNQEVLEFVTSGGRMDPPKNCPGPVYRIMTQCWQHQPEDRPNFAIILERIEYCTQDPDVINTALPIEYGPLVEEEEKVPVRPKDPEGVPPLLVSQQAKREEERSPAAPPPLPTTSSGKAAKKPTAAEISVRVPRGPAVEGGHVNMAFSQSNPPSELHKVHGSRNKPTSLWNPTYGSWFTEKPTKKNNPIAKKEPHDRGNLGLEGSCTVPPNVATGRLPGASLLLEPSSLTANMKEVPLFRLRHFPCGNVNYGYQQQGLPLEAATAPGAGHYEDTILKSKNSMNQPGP
In words: Western blot of ALK protein level (degradation, DC50), ALK phosphorylation and downstream signaling in H3122 cells. The following applies: ALK protein degradation in H3122 cells.

[3] abbreviates: 72 h, Brigatinib-based PROTAD molecules (Table 3).

With `COc1cc(N2CCC(N3CCN(C(=O)CCOCCOCCOCCOCCOCCNc4cccc5c4C(=O)N(C4CCC(=O)NC4=O)C5=O)CC3)CC2)ccc1Nc1ncc(Cl)c(Nc2ccccc2P(C)(C)=O)n1` (stereo not drawn) [SIAIS164017, 4-((18-(4-(1-(4-((5-chloro-4-((2-(dimethylphosphoryl)phenyl)amino)pyrimidin-2-yl)amino)-3-methoxyphenyl)piperidin-4-yl)piperazin-l-yl)-18-oxo-3,6,9,12,15-pentaoxaoctadecyl)amino)-2-(2,6-dioxopiperidin-3-yl)isoindoline-1,3-dione], half-maximal inhibition with SR (NPM-ALK) cells (setting [3]) (IC50) was put at 14 ± 8.6 nM. This molecule had a DC50 in test [1] of 100 to 500 nM. For the same molecule, the “DC50 (nM)) in H3122” value in test [2] was in the range of 0.02 to 20 nM.
Take `COc1cc(N2CCC(N3CCN(C(=O)CCNc4cccc5c4C(=O)N(C4CCC(=O)NC4=O)C5=O)CC3)CC2)ccc1Nc1ncc(Cl)c(Nc2ccccc2P(C)(C)=O)n1` (stereo not drawn) [SIAIS164019, 4-((3-(4-(1-(4-((5-chloro-4-((2-(dimethylphosphoryl)phenyl)amino)pyrimidin-2-yl)amino)-3-methoxyphenyl)piperidin-4-yl)piperazin-1-yl)-3-oxopropyl)amino)-2-(2,6-dioxopiperidin-3-yl)isoindoline-1,3-dione]: 9.6 ± 8 nM corresponded to half-maximal inhibition in the test with SR (NPM-ALK) cells (setting [3]) (IC50). Further, the DC50 fell in the range of 1 to 10 nM in test [1] and 10 to 20 nM in test [2].
The like results for `COc1cc(N2CCC(N3CCN(C(=O)CCCNc4cccc5c4C(=O)N(C4CCC(=O)NC4=O)C5=O)CC3)CC2)ccc1Nc1ncc(Cl)c(Nc2ccccc2P(C)(C)=O)n1` (stereo not drawn) [SIAIS164020, 4-((4-(4-(1-(4-((5-chloro-4-((2-(dimethylphosphoryl)phenyl)amino)pyrimidin-2-yl)amino)-3-methoxyphenyl)piperidin-4-yl)piperazin-1-yl)-4-oxobutyl)amino)-2-(2,6-dioxopiperidin-3-yl)isoindoline-1,3-dione] were, in that order, 2.9 ± 1.5 nM, 0.5 to 10 nM and 1 to 50 nM.
In the test with SR (NPM-ALK) cells (Alectinib based ALK PROTAD compounds (Table 4)), `CCc1cc2c(cc1N1CCN(C(=O)CNc3cccc4c3C(=O)N(C3CCC(=O)NC3=O)C4=O)CC1)C(C)(C)c1[nH]c3cc(C#N)ccc3c1C2=O` (stereo not drawn) [SIAIS164028, 8-(4-((2-(2,6-dioxopiperidin-3-yl)-1,3-dioxoisoindolin-4-yl)glycyl)piperazin-1-yl)-9-ethyl-6,6-dimethyl-11-oxo-6,11-dihydro-5H-benzo[b]carbazole-3-carbonitrile] showed an IC50 of 19.7 nM. Moreover, the figures for the DC50 in test [1] and in test [2] were 1 to 50 nM and 1 to 10 nM, respectively.
In the case of `COc1cc(N2CCC(N3CCN(C(=O)CCOCCOCCC(=O)N[C@H](C(=O)N4C[C@H](O)C[C@H]4C(=O)NCc4ccc(-c5scnc5C)cc4)C(C)(C)C)CC3)CC2)ccc1Nc1ncc(Cl)c(Nc2ccccc2P(C)(C)=O)n1` [SIAIS164032, (2S,4R)-1-((S)-2-(3-(2-(3-(4-(1-(4-((5-chloro-4-((2-(dimethylphosphoryl)phenyl)amino)pyrimidin-2-yl)amino)-3-methoxyphenyl)piperidin-4-yl)piperazin-1-yl)-3-oxopropoxy)ethoxy)propanamido)-3,3-dimethylbutanoyl)-4-hydroxy-N-(4-(4-methylthiazol-5-yl)benzyl)pyrrolidine-2-carboxamide], the IC50 in the test on SR (NPM-ALK) cells (setting [3]) is 54.5 ± 31.2 nM. The results for the DC50 in test [1] and in test [2] were 100 to 500 nM and 20 to 100 nM, respectively.
In the test on SR (NPM-ALK) cells (setting [3]), `COc1cc(N2CCC(N3CCN(C(=O)CCOCCOCCOCCC(=O)N[C@H](C(=O)N4C[C@H](O)C[C@H]4C(=O)NCc4ccc(-c5scnc5C)cc4)C(C)(C)C)CC3)CC2)ccc1Nc1ncc(Cl)c(Nc2ccccc2P(C)(C)=O)n1` [SIAIS164033, (2S,4R)-1-((S)-2-(tert-butyl)-16-(4-(1-(4-((5-chloro-4-((2-(dimethylphosphoryl)phenyl)amino)pyrimidin-2-yl)amino)-3-methoxyphenyl)piperidin-4-yl)piperazin-1-yl)-4,16-dioxo-7,10,13-trioxa-3-azahexadecanoyl)-4-hydroxy-N-(4-(4-methylthiazol-5-yl)benzyl)pyrrolidine-2-carboxamide] registered an IC50 of 50.1 ± 34.9 nM. The DC50 in test [1] and in test [2] was 100 to 500 nM each time.
Turning to `COc1cc(N2CCC(N3CCN(C(=O)CCOCCOCCOCCOCCC(=O)N[C@H](C(=O)N4C[C@H](O)C[C@H]4C(=O)NCc4ccc(-c5scnc5C)cc4)C(C)(C)C)CC3)CC2)ccc1Nc1ncc(Cl)c(Nc2ccccc2P(C)(C)=O)n1` [SIAIS164034, (2S,4R)-1-((S)-2-(tert-butyl)-19-(4-(1-(4-((5-chloro-4-((2-(dimethylphosphoryl)phenyl)amino)pyrimidin-2-yl)amino)-3-methoxyphenyl)piperidin-4-yl)piperazin-1-yl)-4,19-dioxo-7,10,13,16-tetraoxa-3-azanonadecanoyl)-4-hydroxy-N-(4-(4-methylthiazol-5-yl)benzyl)pyrrolidine-2-carboxamide], the IC50 in the test with SR (NPM-ALK) cells (setting [3]) came to 88.6 ± 63 nM. For the same molecule, the DC50 in test [1] and in test [2] was 100 to 500 nM in each case.
In the case of `COc1cc(N2CCC(N3CCN(C(=O)CCOCCOCCOCCOCCOCCC(=O)N[C@H](C(=O)N4C[C@H](O)C[C@H]4C(=O)NCc4ccc(-c5scnc5C)cc4)C(C)(C)C)CC3)CC2)ccc1Nc1ncc(Cl)c(Nc2ccccc2P(C)(C)=O)n1` [SIAIS164035, (2S,4R)-1-((S)-2-(tert-butyl)-22-(4-(1-(4-((5-chloro-4-((2-(dimethylphosphoryl)phenyl)amino)pyrimidin-2-yl)amino)-3-methoxyphenyl)piperidin-4-yl)piperazin-1-yl)-4,22-dioxo-7,10,13,16,19-pentaoxa-3-azadocosanoyl)-4-hydroxy-N-(4-(4-methylthiazol-5-yl)benzyl)pyrrolidine-2-carboxamide], in the test on SR (NPM-ALK) cells (setting [3]), the IC50 is 41.8 ± 24.7 nM. Further, the half-maximal degradation concentration (DC50) in test [1] and in test [2] was 100 to 500 nM in each case.
Molecule `COc1cc(N2CCC(N3CCN(C(=O)COCCOCC(=O)N[C@H](C(=O)N4C[C@H](O)C[C@H]4C(=O)NCc4ccc(-c5scnc5C)cc4)C(C)(C)C)CC3)CC2)ccc1Nc1ncc(Cl)c(Nc2ccccc2P(C)(C)=O)n1` [SIAIS164041, (2S,4R)-1-((S)-2-(2-(2-(2-(4-(1-(4-((5-chloro-4-((2-(dimethylphosphoryl)phenyl)amino)pyrimidin-2-yl)amino)-3-methoxyphenyl)piperidin-4-yl)piperazin-1-yl)-2-oxoethoxy)ethoxy)acetamido)-3,3-dimethylbutanoyl)-4-hydroxy-N-(4-(4-methylthiazol-5-yl)benzyl)pyrrolidine-2-carboxamide] returned a half-inhibitory concentration (IC50) in the test on SR (NPM-ALK) cells (setting [3]) of 42.7 ± 29.4 nM. Further, the DC50 in test [1] lay in the range of 10 to 50 nM; in test [2] it was 10 to 500 nM.
The like results for `COc1cc(N2CCC(N3CCN(C(=O)CCC(=O)N[C@H](C(=O)N4C[C@H](O)C[C@H]4C(=O)NCc4ccc(-c5scnc5C)cc4)C(C)(C)C)CC3)CC2)ccc1Nc1ncc(Cl)c(Nc2ccccc2P(C)(C)=O)n1` [SIAIS164120, (2S,4R)-1-((S)-2-(4-(4-(1-(4-((5-chloro-4-((2-(dimethylphosphoryl)phenyl)amino)pyrimidin-2-yl)amino)-3-methoxyphenyl)piperidin-4-yl)piperazin-1-yl)-4-oxobutanamido)-3,3-dimethylbutanoyl)-4-hydroxy-N-(4-(4-methylthiazol-5-yl)benzyl)pyrrolidine-2-carboxamide] were, in that order, 19.2 ± 8.8 nM, 1 to 10 nM and 10 to 100 nM.
In the test with SR (NPM-ALK) cells (setting [3]), `COc1cc(N2CCC(N3CCN(C(=O)CCCC(=O)N[C@H](C(=O)N4C[C@H](O)C[C@H]4C(=O)NCc4ccc(-c5scnc5C)cc4)C(C)(C)C)CC3)CC2)ccc1Nc1ncc(Cl)c(Nc2ccccc2P(C)(C)=O)n1` [SIAIS164121, (2S,4R)-1-((S)-2-(5-(4-(1-(4-((5-chloro-4-((2-(dimethylphosphoryl)phenyl)amino)pyrimidin-2-yl)amino)-3-methoxyphenyl)piperidin-4-yl)piperazin-1-yl)-5-oxopentanamido)-3,3-dimethylbutanoyl)-4-hydroxy-N-(4-(4-methylthiazol-5-yl)benzyl)pyrrolidine-2-carboxamide] registered an IC50 of 21.6 ± 12.5 nM. In addition, the DC50 in test [1] was 1 to 10 nM; in test [2], 50 to 100 nM.
The like results for `COc1cc(N2CCC(N3CCN(C(=O)CCCCC(=O)N[C@H](C(=O)N4C[C@H](O)C[C@H]4C(=O)NCc4ccc(-c5scnc5C)cc4)C(C)(C)C)CC3)CC2)ccc1Nc1ncc(Cl)c(Nc2ccccc2P(C)(C)=O)n1` [SIAIS164122, (2S,4R)-1-((S)-2-(6-(4-(1-(4-((5-chloro-4-((2-(dimethylphosphoryl)phenyl)amino)pyrimidin-2-yl)amino)-3-methoxyphenyl)piperidin-4-yl)piperazin-1-yl)-6-oxohexanamido)-3,3-dimethylbutanoyl)-4-hydroxy-N-(4-(4-methylthiazol-5-yl)benzyl)pyrrolidine-2-carboxamide] were, in that order, 12.1 ± 9.2 nM, 1 to 50 nM and 50 to 100 nM.
The like results for `COc1cc(N2CCC(N3CCN(C(=O)CCCCCC(=O)N[C@H](C(=O)N4C[C@H](O)C[C@H]4C(=O)NCc4ccc(-c5scnc5C)cc4)C(C)(C)C)CC3)CC2)ccc1Nc1ncc(Cl)c(Nc2ccccc2P(C)(C)=O)n1` [SIAIS164123, (2S,4R)-1-((S)-2-(7-(4-(1-(4-((5-chloro-4-((2-(dimethylphosphoryl)phenyl)amino)pyrimidin-2-yl)amino)-3-methoxyphenyl)piperidin-4-yl)piperazin-1-yl)-7-oxoheptanamido)-3,3-dimethylbutanoyl)-4-hydroxy-N-(4-(4-methylthiazol-5-yl)benzyl)pyrrolidine-2-carboxamide] were, in that order, 11.4 ± 8.1 nM, 1 to 50 nM and 10 to 50 nM.
